Values joined by “and” are separate entries in the source; they are usually repeats but may differ in a detail not shown here. Equal entries are not always repeated.
Tested on: citric acid-induced acute cough in guinea pigs
Experiment: ATP-sensitized citric acid-induced acute cough model in guinea pigs (WBP system)
Format: in vivo, guinea pig
Conditions: for Total cough count (CCnt): within 10 minutes, Mean ± SEM, N = 12; for Change rate of total cough count: versus solvent group; for average cough times decreased compared to the solvent group: decrease; for antitussive effect (in words): compared to the solvent group
Protocol: • Male Hartley guinea pigs: Beijing Vital River Laboratory Animal Technology Co., Ltd; • 250 μM ATP solution: Sigma, catalog number A2383; • 0.5 M citric acid solution: Sigma, catalog number C2404; • DSI Buxco Whole Body Plethysmography (WBP) system instrument: manufacturer DSI, serial numbers 100249, 990171; • Electronic balance: Mettler Toledo, serial number B844687071.
• Solvent (10% (v/v) E-TPGS aqueous solution, pH 7.4±0.1): TPGS was heated and melted into a liquid in a water bath. 10 mL of TPGS was taken and then added to 85 mL of deionized water, and the mixture was stirred to form a homogeneous solution. The pH was adjusted to 7.4±0.1 using an appropriate concentration of HCl/NaOH. The final volume was made up to 100 mL with deionized water, and the mixture was stirred until visually homogeneous. The pH was checked, and if necessary, adjusted to 7.4±0.1 using an appropriate concentration of HCl/NaOH.
The administration formulation was prepared under yellow light conditions.
The required mass of the compound was accurately weighed into an appropriate container, and slowly added to a suitable container containing 80% of the final volume of the solvent (10% (v/v) E-TPGS aqueous solution, pH 7.4±0.1), and the mixture was stirred until visually homogeneous. The solvent was added to 90% of the final volume, and the mixture was stirred until visually homogeneous. If necessary, the pH was adjusted to 7.3-7.6 with an appropriate concentration of HCl/NaOH. If necessary, the formulation was subjected to ultrasonic treatment. The solvent was then added to the final volume, and the mixture was stirred until a visually clear and homogeneous solution was obtained.
After the preparation of the administration formulation was completed, the administration formulation was aliquoted into daily doses and stored in a refrigerator at 2-8° C., protected from light, and used within 10 days. Prior to administration, the formulation was removed from the refrigerator 30 minutes in advance, and stirred for 30 minutes at room temperature and protected from light until it reached room temperature.
Preparation of dextromethorphan: the required volume for administration was calculated based on the animal's body weight. The weighting amount of dextromethorphan (DM) was determined based on the administration volume and dose. The DM was accurately weighed and dissolved in 1×PBS (Phosphate Buffered Saline) with the calculated administration volume. The solution was mixed homogeneously by shaking until a clear solution was formed, and it was prepared freshly before use.
In the experiment, the solvent (10% (v/v) E-TPGS (Vitamin E Polyethylene Glycol Succinate)) and each test compound were administered to guinea pigs by gavage 3 hours prior to citric acid nebulization. The reference compound, dextromethorphan (DM), was administered to guinea pigs by gavage 40 minutes prior to citric acid nebulization (see Table 1 for details).
At the scheduled time, male Hartley guinea pigs (300-400 g) were placed in the respiratory volume plethysmography chamber of the DSI Buxco Whole Body Plethysmography (WBP) system. After an acclimation period of 3-5 minutes, a solution of ATP with a concentration of 250 μM was nebulized and sprayed into the chamber for 2 minutes. After a 3-minute interval, a solution of citric acid with a concentration of 0.5 M was administered for 5 minutes to induce coughing. From the start of citric acid nebulization, the WBP system recorded the total cough counts (CCnt) within 10 minutes and the cough incubation period (CIP, i.e., the time from the start of citric acid induction to the appearance of the first cough).

[1] = 30 mg/kg oral single dose 3 hours before citric acid nebulization
[2] = 30 mg/kg oral, 3 hours before citric acid nebulization
[3] = 30 mg/kg oral, 3 hours before citric acid

Structure (SMILES) | Total cough count (CCnt) (3 mg/kg oral single dose 3 hours before citric acid nebulization) | Cough incubation period (CIP) (3 mg/kg oral, 3 hours before citric acid nebulization) | Change rate of total cough count (3 mg/kg oral, 3 hours before citric acid) [%] | average cough times decreased compared to the solvent group (3 mg/kg oral) [%] | Total cough count (CCnt) (10 mg/kg oral single dose 3 hours before citric acid nebulization) | Cough incubation period (CIP) (10 mg/kg oral, 3 hours before citric acid nebulization) | Change rate of total cough count (10 mg/kg oral, 3 hours before citric acid) [%] | average cough times decreased compared to the solvent group (10 mg/kg oral) [%] | Total cough count (CCnt) [1] | Cough incubation period (CIP) [2] | Change rate of total cough count [3] [%] | average cough times decreased compared to the solvent group (30 mg/kg oral) [%] | antitussive effect (in words) | Total cough count (CCnt) (63 mg/kg oral single dose 40 minutes before citric acid nebulization) | Cough incubation period (CIP) (63 mg/kg oral, 40 minutes before citric acid nebulization) | Change rate of total cough count (63 mg/kg oral, 40 minutes before citric acid) [%]
O=C(c1ccc(F)cc1C(F)(F)F)c1cnc2n1CCN(c1cnn(COP(=O)(O)O)c(=O)c1Cl)C2 [Compound 1, (5-chloro-4-(3-(4-fluoro-2-(trifluoromethyl)benzoyl)-5,6-dihydroimidazo[1,2-a]pyrazin-7(8H)-yl)-6-oxopyridazin-1(6H)-yl)methyl Dihydrogen Phosphate] | 17.00 times and 17.00 ± 2.11 times | 234.42 s and 234.42 ± 24.11 s | −20.93 | 20.93 | 13.42 times and 13.42 ± 1.18 times | 283.67 s and 283.67 ± 42.98 s | −37.60 | 37.60 | 10.73 times and 10.73 ± 1.71 times | 293.75 s and 293.75 ± 33.66 s | −50.11 | 50.11 | good antitussive effect |  |  | 
O=c1[nH]ncc(N2CCc3c(ncnc3Oc3ccc(F)cc3C(F)(F)F)C2)c1Cl [Compound 2-1] |  |  |  |  |  |  |  |  | 12.75 ± 1.86 times | 290.08 s and 290.08 ± 43.61 s | −40.70 | 40.70 | good antitussive efficacy |  |  | 
O=c1c(-c2ccc(O)cc2)coc2cc(O)cc(O)c12 [Compound 3-1] |  |  |  |  |  |  |  |  | 11.83 ± 2.02 times | 281.67 s and 281.67 ± 37.84 s | −44.96 | 44.96 | good antitussive efficacy |  |  | 
COc1ccc2c(c1)[C@]13CCCC[C@@H]1[C@H](C2)N(C)CC3 [DM, dextromethorphan, reference compound] |  |  |  |  |  |  |  |  |  |  |  |  |  | 12.17 times and 12.17 ± 2.76 ^c times | 291.00 s and 291.00 ± 41.65 s | −43.41
